{"source": "patent US9453008B2", "about": "“Antithrombotic and antiatherosclerotic agent and method for producing same (variants)” (PROTON OOO, priority 2011, dated 2016)", "key": {"[1]": {"tested_on": "spontaneously hypertensive (SHT) rats", "assay": "Blood pressure in narcotized SHT rats, intravenous administration", "type": "in vivo, rat", "description": "(§1) The experiments were performed on spontaneously hypertensive (SHT) and normotensive (NT) narcotized male rats using intravenous administration of the tested compounds. The ability of the compound to reduce arterial blood pressure (BP) in SHT rats and prevent spasmogenic reactions to noradrenalin (NA) and angiotensin I (AI).\nThe compound of formula I was used as a solution in 3% aqueous DMSO. Sodium nitroprusside and nitroglycerin were used as reference drugs.\nThe administration of the compound of formula I in dose range 0.01-0.1-0.5 and 1.0 mg/kg has exerted dose-dependent antihypertensive effect ranging in time from 30-40 s to 60 min and more."}, "[2]": {"tested_on": "pressor effect of noradrenaline", "assay": "Pressor effect of noradrenaline after intravenous administration in normotensive narcotized rats", "type": "in vivo, rat", "description": "as §1\n(§2) The effects of the compound of formula I on the pressor effects of noradrenaline (NA, 10-15 μg/kg), mesatonum (M, 5 μg/kg) and angiotensin (AI, 5 μg/kg) were studied on normotensive narcotized […]. Antihypertensive action of the compound of formula I was assessed relative to the pressor effects of the control administration of the aforementioned compounds."}, "[3]": {"tested_on": "pressor effect of angiotensin I", "assay": "Pressor effect of angiotensin I after intravenous administration in normotensive narcotized rats", "type": "in vivo, rat", "description": "as §1, §2"}, "non-narcotized SHT rats": {"tested_on": "non-narcotized SHT rats", "assay": "Blood pressure in non-narcotized SHT rats, intragastric administration (non-invasive BP measurement)", "type": "in vivo, rat", "settings": "10 mg/kg orally, 0 - absence of effect", "description": "In experiments on non-narcotized SHT rats intragastric administration of the compound of formula I has caused dose-dependent reduction of BP, the duration of which was increased correspondingly with dose increase (maximal duration of effect 5 hours after single administration of 50 mg/kg dose, Table 3)."}, "[4]": {"settings": "higher doses (above 0.01 mg/kg) intravenous"}}, "data": [{"smiles": "CN1CC(C(O)C(O)C(O)CO)OC1=C(C#N)C=C1Nc2ccccc2C1=O", "note": "(stereo not shown) (hydrate or solvate) [X, 2-[2-Cyano-2-[3-methyl-5-(1,2,3,4-tetrahydroxybutyl)oxazolidin-2-ylidene]ethylidene]indolin-3-one]", "values": [{"measurement": "melting point", "result": "237 °C (dec.)"}]}, {"smiles": "CN1CCOC1=C(C#N)C=C1Nc2ccccc2C1=O", "note": "[IX, 2-[2-Cyano-2-(3-methyloxazolidin-2-ylidene)ethylidene]indolin-3-one]", "values": [{"measurement": "melting point", "result": "222 to 226 °C (dec.)"}]}, {"smiles": "O=[N+]([O-])OCC(CO[N+](=O)[O-])O[N+](=O)[O-]", "note": "[Nitroglycerin, reference compound]", "values": [{"measurement": "Duration of BP reduction", "setting": "[1]; 0.01 mg/kg dose intravenous", "result": "30 to 40", "unit": "s"}, {"measurement": "Reduction of BP", "setting": "[1]; 0.01 mg/kg dose intravenous", "result": "10-15 mmHg"}, {"measurement": "Reduction of BP, mmHg (Δ)", "setting": "[1]; 0.01 mg/kg intravenously, 10-20 s", "result": "−5", "unit": "mmHg"}, {"measurement": "Reduction of BP, mmHg (Δ)", "setting": "[1]; 0.01 mg/kg intravenously, 5 min", "result": "−10 ± 3", "unit": "mmHg"}, {"measurement": "Reduction of BP, mmHg (Δ)", "setting": "[1]; 0.01 mg/kg intravenously, 30 min", "result": "−3", "unit": "mmHg"}, {"measurement": "Reduction of BP, mmHg (Δ)", "setting": "[1]; 0.1 mg/kg intravenously, 10-20 s", "result": "−7 ± 3", "unit": "mmHg"}, {"measurement": "Reduction of BP, mmHg (Δ)", "setting": "[1]; 0.1 mg/kg intravenously, 5 min", "result": "−20 ± 5", "unit": "mmHg"}, {"measurement": "Reduction of BP, mmHg (Δ)", "setting": "[1]; 0.1 mg/kg intravenously, 30 min", "result": "−5", "unit": "mmHg"}, {"measurement": "Reduction of BP, mmHg (Δ)", "setting": "[1]; 0.5 mg/kg intravenously, 10-20 s", "result": "−12 ± 3", "unit": "mmHg"}, {"measurement": "Reduction of BP, mmHg (Δ)", "setting": "[1]; 0.5 mg/kg intravenously, 5 min", "result": "−25 ± 7", "unit": "mmHg"}, {"measurement": "Reduction of BP, mmHg (Δ)", "setting": "[1]; 0.5 mg/kg intravenously, 30 min", "result": "−5", "unit": "mmHg"}, {"measurement": "Reduction of BP, mmHg (Δ)", "setting": "[1]; 1.0 mg/kg intravenously, 10-20 s", "result": "−10 ± 3", "unit": "mmHg"}, {"measurement": "Reduction of BP, mmHg (Δ)", "setting": "[1]; 1.0 mg/kg intravenously, 5 min", "result": "−25 ± 8", "unit": "mmHg"}, {"measurement": "Reduction of BP, mmHg (Δ)", "setting": "[1]; 1.0 mg/kg intravenously, 30 min", "result": "−7 ± 3", "unit": "mmHg"}, {"measurement": "Duration of BP reduction", "setting": "[1]; [4]", "result": "300 to 360", "unit": "s"}, {"measurement": "Reduction of BP", "setting": "[1]; [4]", "result": "20-25 mmHg"}, {"measurement": "Inhibition of pressor reaction (%) induced by Noradrenaline", "setting": "[2]; 0.5 mg/kg intravenous", "result": "20-25%"}, {"measurement": "Inhibition of pressor reaction (%) induced by Noradrenaline", "setting": "[2]; 1.0 mg/kg intravenous", "result": "40-50%"}, {"measurement": "Inhibition of pressor reaction (%) induced by Angiotensin I", "setting": "[3]; 0.5 mg/kg intravenous, 0 - absence of effect", "result": 0, "unit": "%"}, {"measurement": "Inhibition of pressor reaction (%) induced by Angiotensin I", "setting": "[3]; 1.0 mg/kg intravenous", "result": "25-30%"}, {"measurement": "Reduction of BP, mmHg", "setting": "non-narcotized SHT rats; time column 1, 1 h after dosing", "result": 0, "unit": "mmHg"}, {"measurement": "Reduction of BP, mmHg", "setting": "non-narcotized SHT rats; time column 2, 2 h after dosing", "result": 0, "unit": "mmHg"}, {"measurement": "Reduction of BP, mmHg", "setting": "non-narcotized SHT rats; time column 3, 3 h after dosing", "result": 0, "unit": "mmHg"}, {"measurement": "Reduction of BP, mmHg", "setting": "non-narcotized SHT rats; time column 4, 4 h after dosing", "result": 0, "unit": "mmHg"}, {"measurement": "Reduction of BP, mmHg", "setting": "non-narcotized SHT rats; time column 5, 5 h after dosing", "result": 0, "unit": "mmHg"}, {"measurement": "Reduction of BP, mmHg", "setting": "non-narcotized SHT rats; time column 6, 6 h after dosing", "result": 0, "unit": "mmHg"}]}]}
